Assay results taken from paper PMC7303061, “Alternaria toxins as casein kinase 2 inhibitors and possible consequences for estrogenicity: a hybrid in silico/in vitro study” (Archives of Toxicology, 2020).
Where two headings read alike, the source gives them in different places.

How the values were obtained:
[1] = biological target: T1, casein kinase 2 (CK2α1) (Homo sapiens, UniProt P68400); assay: cell-free ADP-Glo kinase assay with recombinant CK2α[…] and casein, […] ATP; assay type: biochemical
T1 construct: gene CSNK2A1; recombinant CK2α1
T1 sequence (P68400 whole entry): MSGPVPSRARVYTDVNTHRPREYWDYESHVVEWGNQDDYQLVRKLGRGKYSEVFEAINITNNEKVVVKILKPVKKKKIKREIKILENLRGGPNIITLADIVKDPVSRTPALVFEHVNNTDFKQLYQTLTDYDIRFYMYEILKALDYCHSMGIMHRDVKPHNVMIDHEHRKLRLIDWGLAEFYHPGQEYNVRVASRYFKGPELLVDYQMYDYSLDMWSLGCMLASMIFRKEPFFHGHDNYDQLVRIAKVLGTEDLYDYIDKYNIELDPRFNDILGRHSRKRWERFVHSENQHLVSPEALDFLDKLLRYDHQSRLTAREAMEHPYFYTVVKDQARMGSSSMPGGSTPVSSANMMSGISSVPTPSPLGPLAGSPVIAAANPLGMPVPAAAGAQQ

[2] = biological target: T1, casein kinase 2 (CK2α1); assay: cell-free ADP-Glo kinase assay, single concentration ([…]) positive control; assay type: biochemical

SMILES: Cc1cc(O)cc2oc(=O)c3c(O)cc(O)cc3c12 [AOH, alternariol]
- IC50 [1]: 707 nM

SMILES: O=C1CC[C@]2(O)c3c(ccc(O)c31)-c1ccc(O)c3c1C2[C@H]1O[C@H]1C3=O (stereo partly drawn) [ATX-II, altertoxin II]
- IC50 ([1]; read-out: IC50): 5100 nM

SMILES: O=c1c(O)c(-c2ccc(O)c(O)c2)oc2cc(O)cc(O)c12 [QUE, quercetin]
- inhibition at 10 µM [2]: 94%
